{
  "source": "patent US5068247A",
  "about": "“2-aminopentanoic acid compounds and their use as immunosuppressants” (priority 1989, dated 1991)",
  "key": {"[1]": {"system": "IL-2 production in PHA-stimulated mouse spleen cells", "assay": "suppression of IL-2 production in PHA-stimulated mouse spleen cells", "type": "cell-based", "settings": "for inhibition at 0.001 µg/mL / inhibition at 0.01 µg/mL / inhibition at 0.1 µg/mL / inhibition at 1 µg/mL: Mus musculus, 24 h, read-out: Suppression", "method": "The suppression of IL-2 and IL-3 production in the mitogen-stimulated mouse spleen cells was examined as follows:\nThe spleen was resected from 5- to 8-week-old male C3H/HeN mice, and a single cell suspension of spleen cells was prepared by using the RPMI1640 culture medium. After hemolytic treatment, the concentration of the suspension was adjusted to 10^7 cells/ml by using the RPMI1640 culture medium supplemented with 20% FCS, to which 10 μg/ml of phytohemagglutinin (PHA) was added as mitogen. […] After termination of culture, the supernatant was collected and used as the culture supernatant of PHA-stimulated mouse spleen cells.\nThe IL-2 activity in the culture supernatant of PHA-stimulated mouse spleen cells was assayed as follows:\nIL-2 dependent mouse cell line CTLL-2 cells were suspended in the RPMI1640 culture medium supplemented with 30% FCS to the concentration of 2×10^5 cells/ml. One hundred μl of the cell suspension and 100 μl of the two-fold serial dilution of the culture supernatant of PHA-stimulated mouse spleen cells were added to a 96-well flat-bottomed microtest plate. […] The IL-2 activity is expressed in U/ml as the dilution at which the absorbancy measured by MTT method was 50% of the maximum."}, "[2]": {"system": "human allogenic MLR (human peripheral blood lymphocytes)", "assay": "human allogenic MLR-suppressive activity, 3H-thymidine uptake", "type": "cell-based", "settings": "for suppressive activity in human allogenic MLR (in words): 1 to 0.0001 μg/ml; for inhibition at 0.0001 µg/mL / inhibition at 0.001 µg/mL / inhibition at 0.01 µg/mL / inhibition at 0.1 µg/mL / inhibition at 1 µg/mL: Homo sapiens, Lymphocyte, read-out: Suppression", "method": "The human allogenic MLR-suppressive activity was assayed as follows:\nHuman peripheral blood lymphocytes obtained by Ficoll-Paque density gradient centrifugation of normal human peripheral blood were suspended in the RPMI1640 culture medium supplemented with 10% FCS, placed in a plastic dish, and cultured in an atmosphere of 5% carbon dioxide and 95% air at 37° C. for 2 hours. After termination of culture, the supernatant after gentle pipetting was collected and centrifuged (1000 rpm, for 5 minutes) to obtain plastic-nonadherent cells. The plastic-nonadherent cells were allowed to pass through a nylon-wool column to give nylon-nonadherent cells, and the concentration of the cell suspension was adjusted to 4×10^6 cells/ml by using the RPMI1640 culture medium supplemented with 10% FCS, and used as the responder cell suspension.\nThe plastic-adherent cells were removed from the plastic dish by vigorous pipetting after addition of phosphate buffered saline (PBS) supplemented with 5% FCS and 0.02% disodium ethylenediaminetetraacetic acid (EDTA). The plastic-adherent cells were treated with 40 μg/ml of mitomycin C at 37° C. for 60 minutes, washed three times, and suspended to the concentration of 4×10^6 cells/ml in the RPMI1640 culture medium supplemented with 10% FCS. The resultant suspension was used as the stimulator cell suspension.\nAfter termination of culture, 37 KBq/well of ^3 H-thymidine was added, and after 18 hours of culture, the cells were harvested by a cell-harvester. The radioactivity incorporated into the cells was measured by a liquid scintillation counter, which was used as an index of blastogenic response of lymphocytes in human allogenic MLR. The suppression of human allogenic MLR was evaluated by calculating the percent suppression by the following formula. [formula]"}},
  "note": "Read-outs that look alike come from different tables or passages of the source.",
  "data": [
    {"compound": "CCCCCCC1(CCCCCC/C=C/C[C@@H](O)[C@H](O)[C@@](N)(CO)C(=O)O)SCCS1", "note": "[Example 3]", "values": [
      {"measurement": "IL-2 activity", "setting": "[1]; 0.001 μg/ml", "value": 14.9, "unit": "U/ml"},
      {"measurement": "IL-2 activity", "setting": "[1]; 0.01 μg/ml", "value": 13.9, "unit": "U/ml"},
      {"measurement": "IL-2 activity", "setting": "[1]; 0.1 μg/ml", "value": 12.6, "unit": "U/ml"},
      {"measurement": "IL-2 activity", "setting": "[1]; 1 μg/ml", "value": 8.6, "unit": "U/ml"},
      {"measurement": "inhibition at 0.001 µg/mL", "setting": "[1]; 0.001 μg/ml", "value": 0, "unit": "%"},
      {"measurement": "inhibition at 0.01 µg/mL", "setting": "[1]; 0.01 μg/ml", "value": 0, "unit": "%"},
      {"measurement": "inhibition at 0.1 µg/mL", "setting": "[1]; 0.1 μg/ml", "value": 0, "unit": "%"},
      {"measurement": "inhibition at 1 µg/mL", "setting": "[1]; 1 μg/ml", "value": 28.9, "unit": "%"},
      {"measurement": "3H-thymidine uptake", "setting": "[2]; 0.0001 μg/ml, Donor A/Donor B", "value": 10700, "unit": "cpm"},
      {"measurement": "3H-thymidine uptake", "setting": "[2]; 0.0001 μg/ml, Donor C/Donor D", "value": 18512, "unit": "cpm"},
      {"measurement": "3H-thymidine uptake", "setting": "[2]; 0.001 μg/ml, Donor A/Donor B", "value": 7285, "unit": "cpm"},
      {"measurement": "3H-thymidine uptake", "setting": "[2]; 0.001 μg/ml, Donor C/Donor D", "value": 17138, "unit": "cpm"},
      {"measurement": "3H-thymidine uptake", "setting": "[2]; 0.01 μg/ml, Donor A/Donor B", "value": 7790, "unit": "cpm"},
      {"measurement": "3H-thymidine uptake", "setting": "[2]; 0.01 μg/ml, Donor C/Donor D", "value": 15337, "unit": "cpm"},
      {"measurement": "3H-thymidine uptake", "setting": "[2]; 0.1 μg/ml, Donor A/Donor B", "value": 6582, "unit": "cpm"},
      {"measurement": "3H-thymidine uptake", "setting": "[2]; 0.1 μg/ml, Donor C/Donor D", "value": 8187, "unit": "cpm"},
      {"measurement": "3H-thymidine uptake", "setting": "[2]; 1 μg/ml, Donor A/Donor B", "value": 5909, "unit": "cpm"},
      {"measurement": "3H-thymidine uptake", "setting": "[2]; 1 μg/ml, Donor C/Donor D", "value": 5143, "unit": "cpm"},
      {"measurement": "suppressive activity in human allogenic MLR (in words)", "setting": "[2]", "value": "exhibited suppressive activity in human allogenic MLR in a concentration-dependent manner"},
      {"measurement": "inhibition at 0.0001 µg/mL", "setting": "[2]; 0.0001 μg/ml, Donor A/Donor B", "value": 10.7, "unit": "%"},
      {"measurement": "inhibition at 0.0001 µg/mL", "setting": "[2]; 0.0001 μg/ml, Donor C/Donor D", "value": 7.9, "unit": "%"},
      {"measurement": "inhibition at 0.001 µg/mL", "setting": "[2]; 0.001 μg/ml, Donor A/Donor B", "value": 41.3, "unit": "%"},
      {"measurement": "inhibition at 0.001 µg/mL", "setting": "[2]; 0.001 μg/ml, Donor C/Donor D", "value": 14.9, "unit": "%"},
      {"measurement": "inhibition at 0.01 µg/mL", "setting": "[2]; 0.01 μg/ml, Donor A/Donor B", "value": 36.8, "unit": "%"},
      {"measurement": "inhibition at 0.01 µg/mL", "setting": "[2]; 0.01 μg/ml, Donor C/Donor D", "value": 24.1, "unit": "%"},
      {"measurement": "inhibition at 0.1 µg/mL", "setting": "[2]; 0.1 μg/ml, Donor A/Donor B", "value": 47.6, "unit": "%"},
      {"measurement": "inhibition at 0.1 µg/mL", "setting": "[2]; 0.1 μg/ml, Donor C/Donor D", "value": 60.5, "unit": "%"},
      {"measurement": "inhibition at 1 µg/mL", "setting": "[2]; 1 μg/ml, Donor A/Donor B", "value": 53.7, "unit": "%"},
      {"measurement": "inhibition at 1 µg/mL", "setting": "[2]; 1 μg/ml, Donor C/Donor D", "value": 76, "unit": "%"}
    ]},
    {"compound": "CCCCCCC(O)C=CCCCCC=CCC(O)C(O)C(N)(CO)C(=O)O", "note": "(centres unmarked) [Example 1]", "values": [
      {"measurement": "IL-2 activity", "setting": "[1]; 0.001 μg/ml", "value": 13.9, "unit": "U/ml"},
      {"measurement": "IL-2 activity", "setting": "[1]; 0.01 μg/ml", "value": 6.1, "unit": "U/ml"},
      {"measurement": "IL-2 activity", "setting": "[1]; 0.1 μg/ml", "value": 3.7, "unit": "U/ml"},
      {"measurement": "IL-2 activity", "setting": "[1]; 1 μg/ml", "value": 2.0, "unit": "U/ml"},
      {"measurement": "inhibition at 0.001 µg/mL", "setting": "[1]; 0.001 μg/ml", "value": 0, "unit": "%"},
      {"measurement": "inhibition at 0.01 µg/mL", "setting": "[1]; 0.01 μg/ml", "value": 49.6, "unit": "%"},
      {"measurement": "inhibition at 0.1 µg/mL", "setting": "[1]; 0.1 μg/ml", "value": 69.4, "unit": "%"},
      {"measurement": "inhibition at 1 µg/mL", "setting": "[1]; 1 μg/ml", "value": 83.5, "unit": "%"},
      {"measurement": "3H-thymidine uptake", "setting": "[2]; 0.0001 μg/ml, Donor C/Donor D", "value": 20334, "unit": "cpm"},
      {"measurement": "3H-thymidine uptake", "setting": "[2]; 0.001 μg/ml, Donor A/Donor B", "value": 12137, "unit": "cpm"},
      {"measurement": "3H-thymidine uptake", "setting": "[2]; 0.001 μg/ml, Donor C/Donor D", "value": 15284, "unit": "cpm"},
      {"measurement": "3H-thymidine uptake", "setting": "[2]; 0.01 μg/ml, Donor A/Donor B", "value": 7479, "unit": "cpm"},
      {"measurement": "3H-thymidine uptake", "setting": "[2]; 0.01 μg/ml, Donor C/Donor D", "value": 7232, "unit": "cpm"},
      {"measurement": "3H-thymidine uptake", "setting": "[2]; 0.1 μg/ml, Donor A/Donor B", "value": 5590, "unit": "cpm"},
      {"measurement": "3H-thymidine uptake", "setting": "[2]; 0.1 μg/ml, Donor C/Donor D", "value": 5292, "unit": "cpm"},
      {"measurement": "3H-thymidine uptake", "setting": "[2]; 1 μg/ml, Donor A/Donor B", "value": 5613, "unit": "cpm"},
      {"measurement": "3H-thymidine uptake", "setting": "[2]; 1 μg/ml, Donor C/Donor D", "value": 6689, "unit": "cpm"},
      {"measurement": "suppressive activity in human allogenic MLR (in words)", "setting": "[2]", "value": "exhibited suppressive activity in human allogenic MLR in a concentration-dependent manner"},
      {"measurement": "inhibition at 0.0001 µg/mL", "setting": "[2]; 0.0001 μg/ml, Donor C/Donor D", "value": 1.4, "unit": "%"},
      {"measurement": "inhibition at 0.001 µg/mL", "setting": "[2]; 0.001 μg/ml, Donor A/Donor B", "value": 0, "unit": "%"},
      {"measurement": "inhibition at 0.001 µg/mL", "setting": "[2]; 0.001 μg/ml, Donor C/Donor D", "value": 24.4, "unit": "%"},
      {"measurement": "inhibition at 0.01 µg/mL", "setting": "[2]; 0.01 μg/ml, Donor A/Donor B", "value": 39.6, "unit": "%"},
      {"measurement": "inhibition at 0.01 µg/mL", "setting": "[2]; 0.01 μg/ml, Donor C/Donor D", "value": 65.4, "unit": "%"},
      {"measurement": "inhibition at 0.1 µg/mL", "setting": "[2]; 0.1 μg/ml, Donor A/Donor B", "value": 56.5, "unit": "%"},
      {"measurement": "inhibition at 0.1 µg/mL", "setting": "[2]; 0.1 μg/ml, Donor C/Donor D", "value": 75.3, "unit": "%"},
      {"measurement": "inhibition at 1 µg/mL", "setting": "[2]; 1 μg/ml, Donor A/Donor B", "value": 56.3, "unit": "%"},
      {"measurement": "inhibition at 1 µg/mL", "setting": "[2]; 1 μg/ml, Donor C/Donor D", "value": 68.2, "unit": "%"}
    ]}
  ]
}
